Data taken from article PMC11050599, “Novel Tetracyclic Azaphenothiazines with the Quinoline Ring as New Anticancer and Antibacterial Derivatives of Chlorpromazine” (International Journal of Molecular Sciences, 2024).

Tests used:
[1] = tested on: standard bacterial strains; experiment: MIC, summary over standard bacterial strains; type: cell-based; conditions: Staphylococcus aureus, ATCC 29213, 25923, and 6538; S. aureus strains other than NCTC 4163; read-out: MIC against the other three strains of S. aureus
Excerpt: To evaluate the antibacterial effectiveness of chloroquinobenzothiazine derivatives, various bacterial strains from international microbe collections such as the American Type Culture Collection (ATCC) and the National Collection of Type Culture (NCTC) were examined, alongside a panel of clinical rods. This included two Gram-negative organisms, E. coli ATCC 25922 and P. aeruginosa ATCC 15442, and a series of six Gram-positive strains: S. aureus NCTC 4163; S. aureus ATCC 29213, 25923, and 6538; and S. epidermidis ATCC 12228 and 35984. The antimicrobial activity was examined using the Minimal Inhibitory Concentration (MIC) method, following standard CLSI procedures with slight adjustments. The MIC was determined using the two-fold serial broth microdilution method in 96-well microtitration plates containing Mueller-Hinton II broth medium (Becton Dickinson, Franklin Lakes, NJ, USA). The final inoculum for all tested bacteria was adjusted to […] (colony-forming units per milliliter). The stock solution of the tested compounds was prepared in dimethyl sulfoxide (DMSO) and diluted to a maximum of 1% solvent content with a sterile medium.

HCT116 cells = experiment: Annexin V-FITC/PI apoptosis flow cytometry, HCT116; type: cell-based, human
Method: To analyze the number of cells in early apoptosis, late apoptosis, or necrosis, A549, MiaPaca-2, and HCT-116 cell lines were cultured in 6-well plates with a seeding density of 1 × 10^5 cells per well. These cells were then treated with selected compounds (4, 5, and 8) at their respective IC50 concentrations and incubated for 72 h. Subsequently, a commercially available kit, the FITC: Annexin V Apoptosis Detection Kit I from BD Biosciences Pharmingen in San Jose, CA, USA, was utilized to assess apoptosis. After 72 h the cells were harvested, washed, and labeled with Annexin V-FITC and propidium iodide (PI) following the manufacturer’s protocol (Becton Dickinson), as previously described. The stained cells were analyzed by flow cytometry. The cells were identified as early apoptotic (Annexin V+/PI−) or late apoptotic/necrotic (Annexin V+/PI+).

[2] = representative dot plot, Figure 4C, IC50, 72 h

MIC [1]: > 128 µg/mL
Structure (SMILES): CN1CCCCC1CCN1c2cc(Cl)ccc2Sc2cc3ccccc3nc21 (stereo not drawn) [Compound 11, 8-Chloro-6-(2-(1-methylpiperidin-2-yl)ethyl)-quino[3,2-b]benzo[1,4]thiazine]
cells in late apoptosis/necrosis, HCT116 (HCT116 cells; compound at IC50, 72 h): 15.64%
HCT-116: Alive (HCT116 cells; [2]): 80.61%
HCT-116: Early Apoptotic (HCT116 cells; [2]): 4.12%
HCT-116: Necrotic (HCT116 cells; [2]): 9.25%
HCT-116: Necrotic/Late Apoptotic (HCT116 cells; [2]): 6.03%
